Columns and labels:
[1] = system: A549; assay: Cytotoxicity against human A549 cells after 24 hrs by MTS assay; assay type: functional, cell-based; settings: A549, 24 h
[2] = system: MCF7; assay: Cytotoxicity against human MCF7 cells after 24 hrs by MTS assay; assay type: functional, cell-based; settings: MCF7, 24 h
[3] = target: T1, Tyrosine-protein phosphatase non-receptor type 1 (Homo sapiens, UniProt P18031); assay: Inhibition of recombinant human GST-tagged PTP1B catalytic domain using para-nitrophenyl phosphate as substrate
T1 sequence (P18031 whole entry): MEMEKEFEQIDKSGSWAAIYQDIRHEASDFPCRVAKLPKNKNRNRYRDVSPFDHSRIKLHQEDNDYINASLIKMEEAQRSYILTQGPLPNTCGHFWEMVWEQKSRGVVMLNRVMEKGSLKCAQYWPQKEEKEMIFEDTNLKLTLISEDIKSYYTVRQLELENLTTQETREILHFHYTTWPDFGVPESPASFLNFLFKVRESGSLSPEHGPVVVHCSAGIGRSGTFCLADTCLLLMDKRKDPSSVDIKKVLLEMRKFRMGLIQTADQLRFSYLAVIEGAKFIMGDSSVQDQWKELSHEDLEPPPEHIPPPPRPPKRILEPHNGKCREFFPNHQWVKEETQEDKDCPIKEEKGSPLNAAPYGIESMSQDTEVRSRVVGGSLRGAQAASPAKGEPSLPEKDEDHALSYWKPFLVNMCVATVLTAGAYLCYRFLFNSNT

IC50 [3] [µM]	SMILES	IC50 [1] [µM]	IC50 [2] [µM]
	C=C1C(=O)O[C@H]2[C@H]1[C@H](OC(C)=O)C/C(C)=C/CC[C@@]1(C)O[C@@H]21	7.3	1.5
	CC[C@]1(O)C(=O)O[C@H]2[C@H]1[C@H](OC(C)=O)C/C(C)=C/CC[C@@]1(C)O[C@@H]21	> 200	45.7
46.3	CC(=O)CC[C@@H]1C[C@@]2(OC1(C)C)C(=O)CC[C@@]2(C)O		
	COc1cccc2c1C(=O)c1c(O)c3c(c(O)c1C2=O)C[C@@](O)(C(=O)CO)C[C@@H]3O[C@H]1C[C@H](N)[C@H](O)[C@H](C)O1 [DOXORUBICIN]	0.21	
